Earlier results as cited in patent US20240299434A1, “URIDINE TRIACETATE AMORPHOUS FORMULATION” (PHARMA CINQ. LLC, priority 2021, published 2024).
Like-named read-outs stand apart in the source and are kept apart here.

Key:
[1] = humans
[2] = mice

Structure (SMILES) | solubility in water | oral bioavailability [1] | oral bioavailability [2]
CC(=O)OC[C@H]1O[C@@H](n2ccc(=O)[nH]c2=O)[C@H](OC(C)=O)[C@@H]1OC(C)=O [Uridine triacetate, 2′,3′,5′-Tri-O-acetyluridine] | approximately 10 milligrams per milliliter | – | –
O=c1ccn([C@@H]2O[C@H](CO)[C@@H](O)[C@H]2O)c(=O)[nH]1 [uridine] | – | approximately 7% | approximately 7%
